Assay results published in patent US11453674B2, “Heterocyclic compound, preparation method and use thereof in medicine” (SUZHOU SINOVENT PHARMACEUTICALS CO., LTD., priority 2019, dated 2022).

Tests used:
CYP2C9 = target: T1, CYP2C9 (Homo sapiens, UniProt P11712); assay: Inhibitory effect on CYP2C9 enzyme in microsomes (diclofenac probe); format: in vitro ADME; conditions: microsomes 0.25 mg/mL, diclofenac 10 μM; IC50 higher than that of benzbromarone
T1 construct: from tissue
Method: Example 27: Evaluating the Inhibitory Effects of Compounds on CYP2C9 Enzyme
The assay was performed in 100 mM phosphate buffer in a total volume of 200 μL. The microsome concentration in the reaction system was 0.25 mg/mL, the concentrations of the test compounds were 10, 3.33, 1.11, 0.37, 0.12, 0.04 and 0 μM, the CYP2C9-specific probe substrate and the concentration were diclofenac (10 μM). The mixture was pre-incubated in a 37° C. thermostatic oscillator for 5 min, and a NADPH-generating system (containing 1.3 mM NADP^+, 3.3 mM D(+)-glucopyranose-6-phosphate, […] glucose-6-phosphate dehydrogenase, 3.3 mM MgCl2) was added to start the reaction. After incubation for 10 min, the reaction was terminated by adding an equal volume of acetonitrile. The mixture was vortexed and centrifuged at 13,000 rpm. The resulting supernatant was loaded to LC-MS-MS to determine the content of metabolites. The metabolite of diclofenac specifically obtained by CYP2C9 metabolism pathway is 4-hydroxydiclofenac. Sulfaphenazole was adopted as a specific CYP2C9 inhibitor. In the experiment, analysis was performed by GraphPad Primsm 5.0 to calculate the half maximal inhibitory concentration (IC50 value).

human hepatocytes = assay: Metabolite study in human hepatocyte incubation system; format: in vitro ADME; conditions: 180 min incubation, LC-MS
Method: (§1) Example 28: Study on Metabolites of Compound in Human and Rat Hepatocyte Incubation System
(§2) 1. Preparation of Stock and Working Solutions
(§3) Stock solution: A proper amount of test sample powders was dissolved in DMSO or other proper solvents, and the mixture was well mixed to give a stock solution (10 mM). The stock solution was preserved in a refrigerator at 4° C. for later use.
(§4) Working solution: The 10 mM stock solution was diluted to 1 mM working solution using acetonitrile, and well mixed for later use.
(§5) 2. Preparation of Thawing Medium I
(§6) Williams' Medium E, glutamate, HEPES, fetal bovine serum albumin, human recombinant insulin, dexamethasone, and cell separation medium (Percoll™) were mixed in a ratio of 700:10:15:50:1:0.1:300 for use.
(§7) 3. Preparation of Terminating Solution
(§8) An acetonitrile solution containing 0.1% formic acid was prepared as the terminating solution and preserved in a refrigerator at 4° C. for use.
(§9) 4. Isolation and Preparation of Hepatocyte Suspension
(§10) The cryopreserved hepatocytes were thawed in a water bath at 37° C. for about 90 s, and quickly poured into the pre-heated isolating buffer. Residual hepatocytes were washed using the isolating buffer. Cells were combined and mixed well, and centrifuged at room temperature for 5 min at 100×g. The supernatant was discarded and the cells were resuspended using pre-heated William' Medium E. 20 μL of hepatocyte suspension was added into 100 μL of 0.4% Trypan blue. The cells were counted, and a cell viability over 70% was required. The hepatocyte density was adjusted to 1.25×10^6 cells/mL using William' Medium E.
(§11) 5. Incubation and Treatment of Samples
(§12) 1) The test compound working solution was pre-incubated (pre-heated) in a constant-temperature incubator at 37° C. for 10 min. 2 μL of the working solution (1 mM) was pipetted to a cell culture plate containing 160 μL of hepatocyte suspension at 1.25×10^6 cells/mL, and the mixture was well mixed. 38 μL of Williams' Medium E was added. The mixture was well mixed and incubated in an incubator (in a total volume of 200 μL), and the timer was started. For the blank control, […] of Williams' Medium E was added instead of the working solution. For 0-min samples, 400 μL of acetonitrile (containing 0.1% formic acid) was added, followed by the working solution and Williams' Medium E.
(§13) 2) After 180 min of incubation, the samples were measured for the cell viability. Then 400 μL of acetonitrile (containing 0.1% formic acid) solution was added to terminate the reaction.
(§14) 3) After the reaction was terminated, the plate was shaken on a shaker at 300 rpm for 10 min, followed by centrifugation at least 10000×g for at least 10 min. After centrifugation, the supernatant was all transferred to centrifuge tubes and dried with nitrogen.
(§15) 4) The residues were re-dissolved in a suitable solvent, and centrifuged at least 10000×g for at least 15 min at room temperature. The supernatant was transferred to a sample analysis plate for LC-MS analysis.
(§16) 5) The methodology for 7-ethoxycoumarin (30 μM) was the same as that of test samples. Samples of the test compounds after incubation were used for metabolite assay only when the target metabolite was detected in the positive control sample. Otherwise, the above experiment should be repeated.
(§17) 6. Data Acquisition and Analysis […]

rat hepatocytes = assay: Metabolite study in rat hepatocyte incubation system; format: in vitro ADME; conditions: 180 min incubation, LC-MS
Method: as §1, §2, §3, §4, §5, §6, §7, §8, §9, §10, §11, §12, §13, §14, §15, §16, §17

[1] = Pharmacokinetics in male SD rats (i.v. and p.o.); format: in vivo; conditions: Sprague-Dawley (SD), rat, plasma, po, p.o. 10 mg/kg vs i.v. 1 mg/kg
Method: Example 29: Pharmacokinetics
Methodology for pharmacokinetics of compounds in rats:
1. Male SD rats were acclimatized in the animal room for 7 days after arrival.
2. Six SD rats were randomized into 2 groups, with 3 animals in each group. One group was administered by oral gavage (p.o.), and the other group was treated via tail vein injection (i.v.). Rats in the p.o. group were deprived of food overnight before administration.
3. After administration, about 200 μL of blood was collected from the orbital venous plexus at various time points.
4. The collected blood samples were centrifuged at 12000 rpm for 5 min at 4° C., and then the upper plasma samples were collected and preserved in a refrigerator at −20° C.
5. The procedures were summarized as follows:
6. LC-MS/MS (UPLC-MS/MS: liquid chromatography Waters Acquity UPLC (USA) and mass spectrometry 5500 Q Trap (Applied Biosystem/MDS SCIEX) or HPLC-MS\MS: liquid chromatography Agilent 1200 series (USA) and mass spectrometry API 4000 (Applied Biosystem/MDS SCIEX)) were used to determine the concentration of the compound in the plasma.
The pharmacokinetic parameters were calculated using the pharmacokinetic software WinNonlin [Model: Phoenix™ WinNonlin® 6.1; Manufacturer: Pharsight Corporation]. [Phoenix 1.1 User's Guide: p 251-p 300]

T1 sequence (P11712 whole entry): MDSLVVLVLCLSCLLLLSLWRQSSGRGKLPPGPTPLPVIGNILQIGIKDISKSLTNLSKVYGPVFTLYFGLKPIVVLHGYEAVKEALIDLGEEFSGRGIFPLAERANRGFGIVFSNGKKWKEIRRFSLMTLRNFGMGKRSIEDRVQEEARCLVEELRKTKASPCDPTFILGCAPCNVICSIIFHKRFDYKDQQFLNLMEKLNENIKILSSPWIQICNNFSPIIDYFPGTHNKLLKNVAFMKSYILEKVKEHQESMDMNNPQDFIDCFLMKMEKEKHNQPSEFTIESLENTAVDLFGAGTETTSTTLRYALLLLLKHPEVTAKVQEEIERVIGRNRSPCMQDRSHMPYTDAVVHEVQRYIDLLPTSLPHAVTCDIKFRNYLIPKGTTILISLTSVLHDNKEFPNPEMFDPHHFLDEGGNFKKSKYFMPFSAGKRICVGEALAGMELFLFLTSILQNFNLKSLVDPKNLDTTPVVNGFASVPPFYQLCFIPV

Row | SMILES | inhibitory effect on CYP enzymes (CYP2C9) (CYP2C9) | toxic metabolites of benzbromarone type (human hepatocytes) | toxic metabolites of benzbromarone type (rat hepatocytes) | bioavailability [1] [%]
1 | CCc1nc2ncc(F)cn2c1C(=O)c1cc(Br)c(O)c(Br)c1 [Example 4, (3,5-dibromo-4-hydroxyphenyl)(2-ethyl-6-fluoroimidazo[1,2-a]pyrimidin-3-yl)methanone] | very low or no inhibitory effect | not observed | not observed | > 30
2 | CCc1nc2ncc(F)cn2c1C(=O)c1cc(Br)c(O)c(C#N)c1 [Example 14, 3-bromo-5-(2-ethyl-6-fluoroimidazo[1,2-a]pyrimidine-3-carbonyl)-2-hydroxybenzonitrile] | very low or no inhibitory effect | not observed | not observed | > 30
3 | CCc1nc2cc(Cl)ncn2c1C(=O)c1cc(Br)c(O)c(Br)c1 [Example 21, (7-chloro-2-ethylimidazo[1,2-f]pyrimidin-3-yl)(3,5-dibromo-4-hydroxyphenyl)methanone] | very low or no inhibitory effect | not observed | not observed | > 30
4 | CCc1nc2ncccn2c1C(=O)c1cc(Br)c(O)c(Br)c1 [Example 20, 2,6-dibromo-4-([2-ethylimidazo[1,2-a]pyrimidin-3-yl]carbonyl) phenol] | very low or no inhibitory effect | not observed | not observed | > 30
5 | CCc1nc2ncc(C(F)(F)F)cn2c1C(=O)c1cc(Br)c(O)c(Br)c1 [Example 5, (3,5-dibromo-4-hydroxyphenyl)(2-ethyl-6-(trifluoromethyl)imidazo[1,2-a]pyrimidin-3-yl)methanone] | very low or no inhibitory effect | not observed | not observed | > 30
